Assay results published in US20100056524A1, “Compound” (priority 2008, published 2010).
Counter-ions that a name gives are not always drawn. Like-named read-outs stand apart in the source and are kept apart here.

How the values were obtained:
MAPKAP-K2 = biological target: T1, MAPKAP-K2 (Homo sapiens, UniProt P49137); experiment: MAPKAP-K2 protein kinase assay; type: biochemical; conditions: for remaining activity at 10 µM: 10 μM compound; for residual kinase activity MAPKAP-K2: 1 μm compound; for remaining activity at 1 µM: 1 μM compound
T1 construct: All protein kinases were of human origin and encoded full length proteins, unless indicated otherwise; made in house
T1 sequence (P49137 46-400 limits assumed): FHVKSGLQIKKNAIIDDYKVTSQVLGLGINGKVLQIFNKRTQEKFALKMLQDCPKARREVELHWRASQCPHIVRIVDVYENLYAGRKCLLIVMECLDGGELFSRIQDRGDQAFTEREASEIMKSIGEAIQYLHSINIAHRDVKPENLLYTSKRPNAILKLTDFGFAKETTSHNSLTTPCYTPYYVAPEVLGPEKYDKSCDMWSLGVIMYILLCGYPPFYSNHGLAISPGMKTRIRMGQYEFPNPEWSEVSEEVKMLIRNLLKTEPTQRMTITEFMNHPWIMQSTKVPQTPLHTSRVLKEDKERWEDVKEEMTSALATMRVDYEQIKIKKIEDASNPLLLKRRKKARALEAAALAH
Text: (§1) All protein kinases were of human origin and encoded full length proteins, unless indicated otherwise. They were either expressed as glutathione S-transferase (GST) fusion proteins in Escherichia Coli or as hexahistidine (His6)-tagged proteins in insect Sf21 cells. GST fusion proteins were purified by affinity chromatography on glutathione-Sepharose, and His6-tagged proteins on nickel/nitriloacetate-agarose. The procedures for expressing some of the protein kinases used herein have been detailed previously.^8,9 The following sections outline the DNA vectors synthesised and the procedures used to express and purifying protein kinases that have not been reported previously.
(§2) All assays (25.5 μl) were carried out at room temperature (21° C.) and were linear with respect to time and enzyme concentration under the conditions used. Assays were performed for 30 min using Multidrop Micro reagent dispensers (Thermo Electron Corporation, Waltham, Mass. 02454, USA) in a 96-well format. The concentration of magnesium acetate in the assays was 10 mM and the [γ-33P] ATP (800 cpm/pmol) was used at 5, 20 or 50 μM as indicated, in order to be at or below the Km for ATP for each enzyme. Protein kinases assayed at 5 μM ATP were: —ERK1, ERK8, PKBα, MARK3, Aurora C. Protein kinases assayed at 20 μM ATP were: —JNK1, PDK1, CHK1, CHK2, CDK2 and Aurora B. Protein kinases assayed at 50 μM ATP were: —MNK2, IKKepsilon and TBK1.
(§3) The assays were initiated with MgATP, stopped by addition of 5 μl of 0.5 M orthophosphoric acid and spotted on to P81 filterplates using a unifilter harvester (PerkinElmer, Boston, Mass. 02118, USA). The IC50 values of inhibitors were determined after carrying out assays at 10 different concentrations of each compound.
(§4) Unless stated otherwise, enzymes were diluted in 50 mM Tris/HCl pH 7.5, 0.1 mM EGTA, 1 mg/ml BSA, 0.1% (v/v) 2-mercaptoethanol and assayed in 50 mM Tris/HCl pH 7.5, 0.1 mM EGTA, 0.1% (v/v) 2-mercaptoethanol.

PDK1 = biological target: T2, PDK1 (Homo sapiens, UniProt O15530); experiment: PDK1 protein kinase assay; type: biochemical; conditions: for remaining activity at 10 µM: 10 μM compound; for residual kinase activity PDK1: 1 μm compound; for remaining activity at 1 µM: 1 μM compound
T2 construct: 3-phosphoinositide-dependent protein kinase-1 [52-556]; His6; made in house; host or cells: insect Sf21 cells
T2 sequence (O15530 52-556): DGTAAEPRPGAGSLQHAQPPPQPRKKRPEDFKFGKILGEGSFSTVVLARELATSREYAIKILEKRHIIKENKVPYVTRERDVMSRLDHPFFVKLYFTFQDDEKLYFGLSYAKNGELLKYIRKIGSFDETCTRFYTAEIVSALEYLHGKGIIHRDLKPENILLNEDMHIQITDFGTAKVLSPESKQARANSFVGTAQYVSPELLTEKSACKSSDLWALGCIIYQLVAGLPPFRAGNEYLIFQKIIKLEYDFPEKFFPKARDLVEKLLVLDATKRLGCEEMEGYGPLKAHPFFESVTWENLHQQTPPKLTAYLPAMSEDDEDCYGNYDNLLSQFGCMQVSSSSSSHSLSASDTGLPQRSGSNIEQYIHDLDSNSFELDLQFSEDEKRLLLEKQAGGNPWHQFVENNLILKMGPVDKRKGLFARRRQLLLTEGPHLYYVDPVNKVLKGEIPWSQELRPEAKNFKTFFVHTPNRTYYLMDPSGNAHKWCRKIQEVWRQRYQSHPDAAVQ
Text: as §1
(§5) The following kinases were expressed in Sf21 cells: Aurora B and Aurora C, extra-cellular signal-regulated kinase 8 (ERK8), microtubule affinity regulating kinase 3 (MARK3), protein kinase Bα[118-480][S473D], protein kinase Bβ (PKBβ[120-481][S474D], 3-phosphoinositide-dependent protein kinase-1 [52-556]
as §2, §3, §4

MARK3 = biological target: T3, MARK3 (Homo sapiens, UniProt P27448); experiment: MARK3 protein kinase assay; type: biochemical; conditions: for remaining activity at 10 µM: 10 μM compound; for residual kinase activity MARK3: 1 μm compound; for remaining activity at 1 µM: 1 μM compound
T3 construct: All protein kinases were of human origin and encoded full length proteins, unless indicated otherwise; His6; made in house; host or cells: Sf21 insect cells
T3 sequence (P27448 whole entry): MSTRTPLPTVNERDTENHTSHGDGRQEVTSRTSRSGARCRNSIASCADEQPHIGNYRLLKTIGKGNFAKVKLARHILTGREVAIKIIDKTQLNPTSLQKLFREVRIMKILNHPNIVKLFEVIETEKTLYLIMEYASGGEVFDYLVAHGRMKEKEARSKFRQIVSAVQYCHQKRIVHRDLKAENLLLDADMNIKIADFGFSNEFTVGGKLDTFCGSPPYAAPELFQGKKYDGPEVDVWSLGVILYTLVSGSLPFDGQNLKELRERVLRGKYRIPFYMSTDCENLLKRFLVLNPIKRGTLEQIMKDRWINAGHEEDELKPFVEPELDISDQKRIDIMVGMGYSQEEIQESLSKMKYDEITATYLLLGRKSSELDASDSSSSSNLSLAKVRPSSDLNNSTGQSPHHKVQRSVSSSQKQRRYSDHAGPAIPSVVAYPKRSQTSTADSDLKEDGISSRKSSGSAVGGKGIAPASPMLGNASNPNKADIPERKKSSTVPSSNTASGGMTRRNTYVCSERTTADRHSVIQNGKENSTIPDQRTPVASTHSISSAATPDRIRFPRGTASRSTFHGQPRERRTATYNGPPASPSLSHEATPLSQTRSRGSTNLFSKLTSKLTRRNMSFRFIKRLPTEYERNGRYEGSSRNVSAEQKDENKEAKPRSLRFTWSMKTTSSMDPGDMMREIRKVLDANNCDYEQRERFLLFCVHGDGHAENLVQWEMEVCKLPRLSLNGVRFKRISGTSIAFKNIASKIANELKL
Text: as §1, §5, §2, §3
ERK1 and ERK8 were both assayed against myelin basic protein (MBP, 0.33 mg/ml). MARK3 was assayed against the peptide […] (300 μM), MNK2 against the eIF4E protein (0.5 mg/ml). PKBβ was assayed against the peptide […] (30 μM). TBK1 were assayed against ([…]) (300 μM). The substrates used for other protein kinases were described previously.^8,9
as §4

NEK2a = biological target: T4, NEK2a (Homo sapiens, UniProt P51955); experiment: NEK2a protein kinase assay; type: biochemical; conditions: for remaining activity at 10 µM: 10 μM compound; for residual kinase activity NEK2a: 1 μm compound; for remaining activity at 1 µM: 1 μM compound
T4 construct: All protein kinases were of human origin and encoded full length proteins, unless indicated otherwise; made in house
T4 sequence (P51955 1-445): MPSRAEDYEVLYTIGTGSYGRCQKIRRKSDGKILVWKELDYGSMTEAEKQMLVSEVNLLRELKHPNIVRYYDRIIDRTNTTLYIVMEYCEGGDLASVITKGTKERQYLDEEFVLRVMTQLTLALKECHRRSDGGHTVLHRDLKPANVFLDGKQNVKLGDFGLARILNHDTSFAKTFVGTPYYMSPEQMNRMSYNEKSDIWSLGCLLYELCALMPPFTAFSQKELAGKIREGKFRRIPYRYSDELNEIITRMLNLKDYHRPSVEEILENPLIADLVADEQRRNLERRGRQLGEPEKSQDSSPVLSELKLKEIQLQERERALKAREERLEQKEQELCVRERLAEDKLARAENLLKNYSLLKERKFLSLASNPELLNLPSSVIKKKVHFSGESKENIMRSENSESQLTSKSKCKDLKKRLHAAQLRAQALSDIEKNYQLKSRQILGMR
Text: as §1, §2, §3, §4

IGF-1R = IGF-1R protein kinase assay; type: biochemical, human; conditions: for residual kinase activity: IGF-1R
Text: as §1, §2, §3, §4

S6K1 = biological target: T5, S6K1 (Homo sapiens, UniProt P23443, T412E); experiment: S6K1 protein kinase assay; type: biochemical; conditions: for remaining activity at 10 µM: 10 μM compound; for residual kinase activity S6K1: 1 μm compound; for remaining activity at 1 µM: 1 μM compound
T5 construct: All protein kinases were of human origin and encoded full length proteins, unless indicated otherwise; made in house
T5 sequence (P23443 1-421 T412E limits assumed): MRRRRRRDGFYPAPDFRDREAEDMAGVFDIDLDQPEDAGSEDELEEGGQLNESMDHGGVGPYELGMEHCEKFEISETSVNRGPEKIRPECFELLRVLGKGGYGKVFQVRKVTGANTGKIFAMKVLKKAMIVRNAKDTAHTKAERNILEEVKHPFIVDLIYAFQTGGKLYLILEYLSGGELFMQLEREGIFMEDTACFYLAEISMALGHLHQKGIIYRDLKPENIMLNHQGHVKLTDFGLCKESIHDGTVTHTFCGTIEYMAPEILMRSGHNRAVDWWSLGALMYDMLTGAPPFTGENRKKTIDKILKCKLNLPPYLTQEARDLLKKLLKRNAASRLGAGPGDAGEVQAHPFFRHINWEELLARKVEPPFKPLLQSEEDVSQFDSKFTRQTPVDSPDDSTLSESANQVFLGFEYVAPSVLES
Text: as §1, §2, §3, §4

GSK3b = biological target: T6, GSK3b (Homo sapiens, UniProt P49841); experiment: GSK3b protein kinase assay; type: biochemical; conditions: for remaining activity at 10 µM: 10 μM compound; for residual kinase activity GSK3b: 1 μm compound; for remaining activity at 1 µM: 1 μM compound
T6 construct: All protein kinases were of human origin and encoded full length proteins, unless indicated otherwise; made in house
T6 sequence (P49841 whole entry): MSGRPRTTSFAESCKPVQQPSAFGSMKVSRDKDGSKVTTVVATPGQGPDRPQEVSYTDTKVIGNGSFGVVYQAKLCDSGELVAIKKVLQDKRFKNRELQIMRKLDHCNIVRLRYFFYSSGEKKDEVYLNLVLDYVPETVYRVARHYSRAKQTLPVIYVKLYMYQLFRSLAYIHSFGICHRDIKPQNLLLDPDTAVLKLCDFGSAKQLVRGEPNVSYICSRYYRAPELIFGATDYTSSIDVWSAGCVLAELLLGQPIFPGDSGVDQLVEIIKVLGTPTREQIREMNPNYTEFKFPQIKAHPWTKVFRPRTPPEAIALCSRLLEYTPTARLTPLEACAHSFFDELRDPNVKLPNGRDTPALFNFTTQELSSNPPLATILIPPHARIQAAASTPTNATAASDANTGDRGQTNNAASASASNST
Text: as §1, §2, §3, §4

PAK5 = biological target: T7, PAK5 (Homo sapiens, UniProt Q9P286); experiment: PAK5 protein kinase assay; type: biochemical; conditions: for remaining activity at 10 µM: 10 μM compound; for residual kinase activity PAK5: 1 μm compound; for remaining activity at 1 µM: 1 μM compound
T7 construct: All protein kinases were of human origin and encoded full length proteins, unless indicated otherwise; made in house
T7 sequence (Q9P286 425-719 limits assumed): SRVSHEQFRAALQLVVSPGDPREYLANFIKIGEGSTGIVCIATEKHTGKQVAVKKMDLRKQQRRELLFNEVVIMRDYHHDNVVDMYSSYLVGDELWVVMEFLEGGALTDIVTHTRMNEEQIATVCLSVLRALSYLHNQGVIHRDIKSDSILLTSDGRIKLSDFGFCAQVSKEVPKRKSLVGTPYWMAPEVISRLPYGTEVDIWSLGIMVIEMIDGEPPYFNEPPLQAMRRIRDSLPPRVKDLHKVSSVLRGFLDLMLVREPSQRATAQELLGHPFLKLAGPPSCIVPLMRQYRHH
Text: as §1, §2, §3, §4

[1] = read-out: residual kinase activity MAPKAP-K2
[2] = read-out: residual kinase activity PDK1
[3] = read-out: residual kinase activity MARK3
[4] = read-out: residual kinase activity NEK2a
[5] = read-out: residual kinase activity S6K1
[6] = read-out: residual kinase activity GSK3b
[7] = read-out: residual kinase activity PAK5
[8] = MAPKAP-K2, read-out: residual kinase activity
[9] = PDK1, 20 μM ATP, read-out: residual kinase activity
[10] = MARK3, 5 μM ATP, read-out: residual kinase activity
[11] = NEK2a, read-out: residual kinase activity
[12] = S6K1, read-out: residual kinase activity
[13] = GSK3b, read-out: residual kinase activity
[14] = PAK5, read-out: residual kinase activity

## O=C(NCCCNc1nc(Nc2cccc(F)c2)ncc1Br)C1CCC1 [Compound A, cyclobutanecarboxylic acid {3-[5-bromo-2-(3-fluoro-phenylamino)-pyrimidin-4-ylamino]-propyl}-amide, reference compound]
MAPKAP-K2; [1]
  remaining activity at 10 µM: 48%
MAPKAP-K2
  residual kinase activity MAPKAP-K2: 82%
PDK1; [2]
  remaining activity at 10 µM: 1%
PDK1
  residual kinase activity PDK1: 6%
MARK3; [3]
  remaining activity at 10 µM: 2%
MARK3
  residual kinase activity MARK3: 3%
NEK2a; [4]
  remaining activity at 10 µM: 57%
NEK2a
  residual kinase activity NEK2a: 95%
IGF-1R; 10 μM compound
  residual kinase activity IGF-1R: 21%
IGF-1R; 1 μm compound
  residual kinase activity IGF-1R: 78%
S6K1; [5]
  remaining activity at 10 µM: 13%
S6K1
  residual kinase activity S6K1: 49%
GSK3b; [6]
  remaining activity at 10 µM: 4%
GSK3b
  residual kinase activity GSK3b: 23%
PAK5; [7]
  remaining activity at 10 µM: 14%
PAK5
  residual kinase activity PAK5: 46%

## O=C(NCCCNc1nc(Nc2cccc(F)c2)ncc1C1CC1)C1CCC1 [Example 23, Cyclobutanecarboxylic acid {3-[5-cyclopropyl-2-(3-fluoro-phenylamino)-pyrimidin-4-ylamino]-propyl}-amide]
MAPKAP-K2; [1]
  remaining activity at 10 µM: 86%
MAPKAP-K2
  residual kinase activity MAPKAP-K2: 77%
MAPKAP-K2; [8]
  remaining activity at 1 µM: 77%
  remaining activity at 10 µM: 86%
PDK1; [2]
  remaining activity at 10 µM: 10%
PDK1
  residual kinase activity PDK1: 44%
PDK1; [9]
  remaining activity at 1 µM: 44%
  remaining activity at 10 µM: 10%
MARK3; [3]
  remaining activity at 10 µM: 1%
MARK3
  residual kinase activity MARK3: 0%
MARK3; [10]
  remaining activity at 1 µM: 0%
  remaining activity at 10 µM: 1%
NEK2a; [4]
  remaining activity at 10 µM: 65%
NEK2a
  residual kinase activity NEK2a: 91%
NEK2a; [11]
  remaining activity at 1 µM: 91%
  remaining activity at 10 µM: 65%
IGF-1R; 10 μM compound
  residual kinase activity IGF-1R: 87%
  residual kinase activity: 87%
IGF-1R; 1 μm compound
  residual kinase activity IGF-1R: 86%
IGF-1R; 1 μM compound
  residual kinase activity: 86%
S6K1; [5]
  remaining activity at 10 µM: 30%
S6K1
  residual kinase activity S6K1: 38%
S6K1; [12]
  remaining activity at 1 µM: 38%
  remaining activity at 10 µM: 30%
GSK3b; [6]
  remaining activity at 10 µM: 20%
GSK3b
  residual kinase activity GSK3b: 53%
GSK3b; [13]
  remaining activity at 1 µM: 53%
  remaining activity at 10 µM: 20%
PAK5; [7]
  remaining activity at 10 µM: 56%
PAK5
  residual kinase activity PAK5: 74%
PAK5; [14]
  remaining activity at 1 µM: 74%
  remaining activity at 10 µM: 56%

## O=C(NCCCNc1nc(Nc2cccc(N3CCCC3=O)c2)ncc1C1CC1)c1cccs1 [Example 47, Thiophene-2-carboxylic acid (3-{5-cyclopropyl-2-[3-(2-oxo-pyrrolidin-1-yl)-phenylamino]-pyrimidin-4-ylamino}-propyl)-amide. Hydrochloride salt]
MAPKAP-K2; [8]
  remaining activity at 1 µM: 75%
  remaining activity at 10 µM: 95%
PDK1; [9]
  remaining activity at 1 µM: 9%
  remaining activity at 10 µM: 2%
MARK3; [10]
  remaining activity at 1 µM: 15%
  remaining activity at 10 µM: 4%
NEK2a; [11]
  remaining activity at 1 µM: 104%
  remaining activity at 10 µM: 79%
IGF-1R; 1 μM compound
  residual kinase activity: 39%
IGF-1R; 10 μM compound
  residual kinase activity: 35%
S6K1; [12]
  remaining activity at 1 µM: 63%
  remaining activity at 10 µM: 30%
GSK3b; [13]
  remaining activity at 1 µM: 73%
  remaining activity at 10 µM: 31%
PAK5; [14]
  remaining activity at 1 µM: 69%
  remaining activity at 10 µM: 68%

## O=C(NCCCNc1nc(Nc2cccnc2)ncc1C1CC1)c1cccs1 [Example 50, Thiophene-2-carboxylic acid {3-[5-cyclopropyl-2-(pyridin-3-ylamino)-pyrimidin-4-ylamino]-propyl}-amide]
MAPKAP-K2; [8]
  remaining activity at 1 µM: 88%
  remaining activity at 10 µM: 85%
PDK1; [9]
  remaining activity at 1 µM: 22%
  remaining activity at 10 µM: 4%
MARK3; [10]
  remaining activity at 1 µM: 13%
  remaining activity at 10 µM: 2%
NEK2a; [11]
  remaining activity at 1 µM: 93%
  remaining activity at 10 µM: 71%
IGF-1R; 1 μM compound
  residual kinase activity: 47%
IGF-1R; 10 μM compound
  residual kinase activity: 32%
S6K1; [12]
  remaining activity at 1 µM: 63%
  remaining activity at 10 µM: 30%
GSK3b; [13]
  remaining activity at 1 µM: 52%
  remaining activity at 10 µM: 19%
PAK5; [14]
  remaining activity at 1 µM: 73%
  remaining activity at 10 µM: 47%
